Patent US4952560A, “Ointment base” (Takeda Chemical Industries, Ltd., priority 1984, dated 1990)
Counter-ions that a name gives are not always drawn.

Test system: Pressor reaction (norepinephirine)
Test: Pressor reaction inhibiting effect of prazosin hydrochloride-containing preparation (Test Example 2)
Type: in vivo, male SD rats
Settings: oral, 20 mg/kg once daily, 3 days; 24 h after last dose; norepinephirine 3 μg/kg i.v.; control 48.6 ± 1.2; * significant difference from control (risk factor 5%)
Procedure: (B) A suspension of prazosin hydrochloride in 1% gum arabic suspension was orally administered.
The dosage for both treatment groups was 20 mg/kg once daily and the treatment was carried out for 3 consecutive days. Twenty-four hours after the last dosing, 3 μg/kg of norepinephirine was intravenously administered under pentobarbital sodium anesthesia (dosage 40 mg/kg; intraperitoneal) and the resulting pressor reaction was compared with that in the untreated control group.

COc1cc2nc(N3CCN(C(=O)c4ccco4)CC3)nc(N)c2cc1OC [prazosin hydrochloride]
Pressor reaction: 34.9 ± 2.2 mmHg
